Article PMC2908295 (Journal of medicinal chemistry, 2010)
Square brackets hold non-standard residues; d marks the D form. Peptide text beside a SMILES is read from it. * marks the point of attachment. X1 = C[C@@H](CCC[N+](C)(C)C)C(=O)*; Tle = CC(C)(C)[C@H](N)C(=O)O

Key:
male Sprague-Dawley rats [1] = test: Hotplate model; assay type: in vivo, rat
male Sprague-Dawley rats [2] = test: Acetic acid writhing model; assay type: in vivo; conditions: rat, i.v., 3% acetic acid i.p. 20 min after drug, n = 3 for all doses
rats = test: Chung model for neuropathic pain; assay type: in vivo; conditions: rat, single dose of 10 mg/kg i.p., n = 5
male Sprague-Dawley rats [3] = test: Hypothermia assay; assay type: in vivo; conditions: rat
PK analysis by LC/MS = assay type: in vivo; conditions: rat, iv, 1 mg/kg
[4] = PK analysis by NTR-1 binding activity in plasma; assay type: in vivo; conditions: rat, i.v., NTR-1 radiolabel competition assay
[5] = rat hotplate, morphine 5 mg/kg i.p., n ≥ 6

Row | Structure (SMILES) | maximum response latency (male Sprague-Dawley rats [1]; rat hotplate, comparison with hydrolysis products, cut-off 30 s) | EC50 hotplate, i.m. (male Sprague-Dawley rats [1]; rat, i.m., assessed after 60 min, n = 3 for all doses) | EC50 hotplate, i.p. (male Sprague-Dawley rats [1]; rat, i.p., assessed after 60 min, n = 3 for all doses) | EC50 hotplate, i.v. (male Sprague-Dawley rats [1]; rat, i.v., assessed after 60 min, n = 3 for all doses) | EC50 hotplate, s.c. (male Sprague-Dawley rats [1]; rat, s.c., assessed after 60 min, n = 3 for all doses) | EC50 acetic acid writhing (male Sprague-Dawley rats [2]) | duration of maximal response, Chung model (rats) | duration of drop in core body temperature (male Sprague-Dawley rats [3]; 10 mg/kg i.v., n ≥ 4) | EC50 hypothermia (area under the PD curves) (male Sprague-Dawley rats [3]; i.v., rectal temperature every 15 min for 4 h, n = 3 for all doses) | Tmax (PK analysis by LC/MS; in vivo) | half-life (PK analysis by LC/MS; plasma) | time until plasma NTR-1 binding returned to level of non-treated animals [4] | maximal response (% of MPE), morphine benchmark (male Sprague-Dawley rats [1]; [5]) | time of return of response to baseline (male Sprague-Dawley rats [1]; [5]) | time to reach 100% MPE (male Sprague-Dawley rats [1]; [5])
1 | CC(C)C[C@H](NC(=O)[C@@H](NC(=O)[C@H](Cc1ccc(O)cc1)NC(=O)[C@@H]1CCCN1C(=O)[C@H](CCCNC(=N)N)NC(=O)[C@@H](C)CCC[N+](C)(C)C)C(C)(C)C)C(=O)O [Compound 1] (X1-RPY[Tle]L-OH; N-terminus assumed) | 30 s | 2.45 mg/kg | 2.00 mg/kg | 2.64 mg/kg | 3.84 mg/kg | 0.16 mg/kg | maintained for over one hour | > 4 h | 0.78 mg/kg | ≤ 5 min | 26.3 min | 60 min |  |  | 
2 | CN1CC[C@]23c4c5ccc(O)c4O[C@H]2[C@@H](O)C=C[C@H]3[C@H]1C5 [morphine, reference compound] |  |  |  |  |  |  |  |  |  |  |  |  | 100% | ≤ 200 min | 15 to 30 min
